In the RepoRT retention time repository (doi:10.1016/j.chroma.2019.01.023):

Assay: HILIC, Waters ACQUITY UPLC BEH Amide, 150 × 2.1 mm, 1.7 µm, 40 °C, 0.5 mL/min, estimated dead time 0.66 min; A: 5% water + 95% acetonitrile; B: 70% water + 30% acetonitrile + 10 mM ammonium formate, pH 6.5; gradient (min/%B) 0/0 2/0 20/70 23/70 24/0 31/0
Settings: stereoisomer not certain

LC retention time [min] | SMILES
1.86 | CC(C)CC(=O)C(=O)O [KETOLEUCINE]
11.3 | NC1C(O)OC(CO)C(O)C1O (stereo unspecified) [GLUCOSAMINE]
5.7 | CCCCCCCCCCCCCC=CC(O)C(COP(=O)([O-])OCC[N+](C)(C)C)NC(=O)CCCCCCCCCCCCCCCCC (stereo unspecified) [SPHINGOMYELIN]
7.85 | C[n+]1cccc(C(=O)[O-])c1 [TRIGONELLINE]
9.43 | NCCc1cnc[nH]1 [HISTAMINE]
5.14 | CCCCCCCCCCCCCCCC(O)C(N)CO (stereo unspecified) [SPHINGANINE]

SMILES | LC retention time [min]
Cn1cncc1CCN [3-METHYLHISTAMINE] | 9.57
NCCCNCCCN [NORSPERMIDINE] | 8.25
NCCc1ccc(O)cc1 [TYRAMINE] | 7.72

Assay: HILIC, Merck SeQuant ZIC-pHILIC, 150 × 2.1 mm, 5 µm, 40 °C, 0.3 mL/min, estimated dead time 1.1 min; A: acetonitrile; B: water + 2.8 mM ammonium formate, pH 9; gradient (min/%B) 0/5 1/5 10/51 13/51 13.1/5 20/5
Settings: stereoisomer not certain

LC retention time [min] | SMILES
7.98 | O=C(O)C(O)CO (stereo unspecified) [GLYCERATE]
10.3 | NC(CSSCC(N)C(=O)O)C(=O)O (stereo unspecified) [CYSTINE]
8.8 | OCC1OC(OCC2OC(O)(CO)C(O)C2O)C(O)C(O)C1O (stereo unspecified) [PALATINOSE]
1.47 | COC(=O)c1ccc(O)c(OC)c1 [METHYL VANILLATE]
9.33 | NCCOP(=O)(O)OP(=O)(O)OCC1OC(n2ccc(N)nc2=O)C(O)C1O (stereo unspecified) [CDP-ETHANOLAMINE]
9.28 | NCC(=O)CCC(=O)O [5-AMINOLEVULINATE]
10.2 | Nc1ncnc2c1ncn2C1CC(O)C(COP(=O)(O)OP(=O)(O)OP(=O)(O)O)O1 (stereo unspecified) [DEOXYADENOSINE TRIPHOSPHATE]
8.79 | O=P(O)(O)OCC(O)CO (stereo unspecified) [GLYCEROL 3-PHOSPHATE]
6.41 | O=C([O-])c1ccccn1 [PICOLINATE]
10.5 | Nc1nc2c(ncn2C2OC(COP(=O)(O)OP(=O)(O)O)C(O)C2O)c(=O)[nH]1 (stereo unspecified) [GUANOSINE DIPHOSPHATE]
8.32 | CC(C)=CCCC(C)=CCOP(=O)(O)OP(=O)(O)O [GERANYL-PP]
8.87 | O=C(O)CCCC(=O)C(=O)O [OXOADIPATE]
10.2 | Nc1nc2c(ncn2C2CC(O)C(COP(=O)(O)OP(=O)(O)O)O2)c(=O)[nH]1 (stereo unspecified) [DGDP]
10.2 | NC(CS)C(=O)O (stereo unspecified) [CYSTEINE]
9.12 | Nc1ncnc2c1ncn2C1OC(COP(=O)(O)OP(=O)(O)OC2OC(CO)C(O)C(O)C2O)C(O)C1O (stereo unspecified) [ADP-GLUCOSE]
5.16 | CCCCCCCCC(=O)[O-] [NONANOATE]
8.76 | CC(=O)NC(CCCCN)C(=O)O (stereo not drawn) [N-ALPHA-ACETYLLYSINE]
9.96 | CC(O)(CC(=O)O)CC(=O)SCCNC(=O)CCNC(=O)C(O)C(C)(C)COP(=O)(O)OP(=O)(O)OCC1OC(n2cnc3c(N)ncnc32)C(O)C1OP(=O)(O)O (stereo unspecified) [3-HYDROXY-3-METHYLGLUTARYL-COA]
11.1 | Nc1nc2c(ncn2C2CC(O)C(COP(=O)(O)OP(=O)(O)OP(=O)(O)O)O2)c(=O)[nH]1 (stereo unspecified) [DGTP]
10.2 | NC1C(O)OC(COP(=O)(O)O)C(O)C1O (stereo unspecified) [GLUCOSAMINE 6-PHOSPHATE]
8.8 | NCCS(=O)O [HYPOTAURINE]
10.1 | NC(=O)C1=CN(C2OC(COP(=O)(O)OP(=O)(O)OCC3OC(n4cnc5c(N)ncnc54)C(OP(=O)(O)O)C3O)C(O)C2O)C=CC1 (stereo unspecified) [NADPH]
9.8 | Nc1ccn(C2CC(O)C(COP(=O)([O-])OP(=O)([O-])[O-])O2)c(=O)n1 (stereo unspecified) [DEOXYCYTIDINE-DIPHOSPHATE]
9.46 | Nc1ncnc2c1ncn2C1OC(COP(=O)(O)OP(=O)(O)O)C(O)C1O (stereo unspecified) [ADENOSINE 5'-DIPHOSPHATE]
8.34 | OC1COC(O)C(O)C1O (stereo unspecified) [XYLOSE]

LC retention time [min] | SMILES
11.1 | Nc1ccn(C2OC(COP(=O)(O)OP(=O)(O)OP(=O)(O)O)C(O)C2O)c(=O)n1 (stereo unspecified) [CYTIDINE TRIPHOSPHATE]
6.48 | CCOC(=O)CC(=O)[O-] [MONOETHYLMALONATE]
9.3 | O=C(CO)C(O)C(O)C(O)COP(=O)(O)O (stereo unspecified) [FRUCTOSE 6-PHOSPHATE]
2.03 | CNCC(O)c1ccc(O)c(O)c1 (stereo unspecified) [EPINEPHRINE]
6.24 | O=CC(O)COP(=O)(O)O (stereo unspecified) [GLYCERALDEHYDE 3-PHOSPHATE]
10.2 | Nc1ccn(C2OC(COP(=O)(O)OP(=O)(O)O)C(O)C2O)c(=O)n1 (stereo unspecified) [CYTIDINE DIPHOSPHATE]
9.23 | NCCOP(=O)(O)O [ETHANOLAMINE PHOSPHATE]
9.02 | N[C@H](C(=O)O)c1ccc(O)cc1 [4-HYDROXY-L-PHENYLGLYCINE]
10.5 | O=c1ccn(C2CC(O)C(COP(=O)(O)OP(=O)(O)OP(=O)(O)O)O2)c(=O)[nH]1 (stereo unspecified) [DEOXYURIDINE TRIPHOSPHATE]
8.64 | NC(CS(=O)O)C(=O)O (stereo unspecified) [3-SULFINOALANINE]
10.3 | NC(CCSCC(N)C(=O)O)C(=O)O (stereo unspecified) [CYSTATHIONINE]
11 | O=c1[nH]cnc2c1ncn2C1OC(COP(=O)(O)OP(=O)(O)OP(=O)(O)O)C(O)C1O (stereo unspecified) [INOSINE TRIPHOSPHATE]
9.19 | O=P(O)(O)OCC1OC(O)C(O)C1O [D-RIBOSE 5-PHOSPHATE]
10.3 | O=C(O)C(O)C(O)C(O)C(O)COP(=O)(O)O (stereo unspecified) [6-PHOSPHOGLUCONATE]
9.21 | O=C(O)CCC(=O)C(=O)O [OXOGLUTARATE]
9.91 | NC(CCS)C(=O)O (stereo unspecified) [HOMOCYSTEINE]
5.74 | C[C@@H](N)C(=O)O [D-ALANINE]
2.13 | C=CC(=O)[O-] [2-PROPENOATE]
8.49 | O=C1OC(C(O)CO)C(O)=C1O (stereo unspecified) [ASCORBATE]
10.5 | O=C(O)C=C(CC(=O)O)C(=O)O [TRANS-ACONITATE]
8.8 | NC(CS)C(=O)NCC(=O)O (stereo unspecified) [CYS-GLY]
10.5 | O=C(O)CC(C(=O)O)C(O)C(=O)O (stereo unspecified) [ISOCITRATE]
8.67 | O=c1ccn(C2OC(COP(=O)(O)O)C(O)C2O)c(=O)[nH]1 (stereo unspecified) [URIDINE MONOPHOSPHATE]
8.5 | O=C(O)C(O)C(O)C(O)C(O)CO (stereo unspecified) [GLUCONATE]
10.9 | O=P(O)(O)OCC1OC(O)(COP(=O)(O)O)C(O)C1O (stereo unspecified) [FRUCTOSE BISPHOSPHATE]

LC retention time [min] | SMILES
10.1 | O=C(O)C(O)COP(=O)(O)O (stereo unspecified) [3-PHOSPHOGLYCERATE]
8.52 | C=C(C)CCOP(=O)(O)OP(=O)(O)O [ISOPENTENYL PYROPHOSPHATE]
7.95 | CC(C)=CC(=O)SCCNC(=O)CCNC(=O)C(O)C(C)(C)COP(=O)(O)OP(=O)(O)OCC1OC(n2cnc3c(N)ncnc32)C(O)C1OP(=O)(O)O (stereo unspecified) [3-METHYLCROTONYL-COA]
10.1 | OCC1OC(OCC2OC(OCC3OC(OC4(CO)OC(CO)C(O)C4O)C(O)C(O)C3O)C(O)C(O)C2O)C(O)C(O)C1O (stereo unspecified) [STACHYOSE]
11 | O=C(O)C1OC(OP(=O)(O)OP(=O)(O)OCC2OC(n3ccc(=O)[nH]c3=O)C(O)C2O)C(O)C(O)C1O (stereo unspecified) [URIDINE DIPHOSPHATE GLUCURONIC ACID]
9.12 | CC(C)(COP(=O)(O)OP(=O)(O)OCC1OC(n2cnc3c(N)ncnc32)C(O)C1OP(=O)(O)O)C(O)C(=O)NCCC(=O)NCCS (stereo unspecified) [COENZYME A]
10.5 | NC(CCCC(N)C(=O)O)C(=O)O (stereo unspecified) [DIAMINOPIMELATE]
2.02 | CN(C)C(N)=NCCCC(N)C(=O)O (stereo unspecified) [N,N-DIMETHYL-ARGININE]
5.17 | O=C(O)C(=O)Cc1c[nH]c2ccccc12 [INDOLE-3-PYRUVATE]
1.91 | O=C(O)c1ccccc1O [SALICYLATE]
9.92 | NC(CCSSCCC(N)C(=O)O)C(=O)O (stereo unspecified) [HOMOCYSTINE]
11.5 | Nc1nc2c(ncn2C2OC(COP(=O)(O)OP(=O)(O)OP(=O)(O)O)C(O)C2O)c(=O)[nH]1 (stereo unspecified) [GUANOSINE TRIPHOSPHATE]
9.98 | O=c1[nH]cnc2c1ncn2C1OC(COP(=O)([O-])OP(=O)([O-])O)C(O)C1O (stereo unspecified) [INOSINE 5'-DIPHOSPHATE]
8.1 | O=C(O)C1(O)CC(O)C(O)C(O)C1 (stereo unspecified) [QUINATE]
9.91 | NC(C(=O)O)C(O)C(O)C(O)CO (stereo unspecified) [GLUCOSAMINATE]
9.14 | Nc1ncnc2c1ncn2C1OC(COP(=O)(O)OP(=O)(O)OCC2OC(O)C(O)C2O)C(O)C1O (stereo unspecified) [ADENOSINE DIPHOSPHATE RIBOSE]
1.54 | CC(O)C(=O)O (stereo unspecified) [LACTATE]
8.69 | NC(CCC(=O)O)C(=O)O (stereo unspecified) [GLUTAMATE]
8.06 | Nc1ccn(C2OC(CO)C3OP(=O)(O)OC32)c(=O)n1 (stereo unspecified) [CYTIDINE 2',3'-CYCLIC PHOSPHATE]
9.56 | OCC1OC(OCC2OC(OC3(CO)OC(CO)C(O)C3O)C(O)C(O)C2O)C(O)C(O)C1O (stereo unspecified) [RAFFINOSE]
1.41 | O=C(O)c1ccccc1 [BENZOATE]
8.33 | CC(=O)NC1C(O)CC(O)(C(=O)O)OC1C(O)C(O)CO (stereo unspecified) [N-ACETYLNEURAMINATE]
8.57 | O=P(O)(O)OC(CO)CO [BETA-GLYCEROPHOSPHATE]
10.2 | Nc1nc2c(ncn2C2OC(COP(=O)(O)OP(=O)(O)OC3OC(CO)C(O)C(O)C3O)C(O)C2O)c(=O)[nH]1 (stereo unspecified) [GUANOSINE DIPHOSPHATE MANNOSE]
8.81 | Nc1nc2c(c(=O)[nH]1)N=C(CNc1ccc(C(=O)NC(CCC(=O)O)C(=O)O)cc1)CN2 (stereo unspecified) [DIHYDROFOLATE]

SMILES | LC retention time [min]
NCCP(=O)(O)O [(2-AMINOETHYL)PHOSPHONATE] | 9.6
CS(=N)(=O)CCC(N)C(=O)O (stereo unspecified) [METHIONINE SULFOXIMINE] | 9.03
